Reference: patent US5061721A (G. D. Searle & Co., priority 1990, dated 1991)
pKd: −log10 of the molar value.

What was measured:
[1] = molecular target: T1, NMDA receptor-associated glycine recognition site (Glycine B receptor) (Rattus norvegicus, UniProt P35439); assay: TCP modulation assay (stimulation of [3H]TCP binding); type: biochemical; conditions: in the presence of 0.6 μM glycine; basal binding 2583 ±381 DPM
T1 construct: synaptic plasma membranes (SPM) prepared from rat forebrain; tissue Sasco, St. Charles, Mo; (animals); host or cells: forebrain synaptic plasma membranes of 30-45 day old male Sprague-Dawley rats, Triton X-100 washed
Method: (§1) [^3 H]TCP binding was performed using Triton X-100 washed synaptic plasma membranes (SPM) prepared from rat forebrain (30-45 day old, male Sprague-Dawley; Sasco, St. Charles, Mo.) as described previously [J. W. Thomas, W. F. Hood, J. B. Monahan, P. C. Contreras and T. L. O'Donohue, Brain Res., 442, 396-398 (1988)]. […] The samples were then filtered though glass fiber filters (Schleicher and Schuell #32) which were pretreated with 0.05% (v/v) polyethylenimine. The filters were washed and the radioactivity quantitated by liquid scintillation spectrometry. […] The EC50 values for the stimulation of [^3 H]TCP binding were determined using a four parameter logistic regression analysis.

[2] = glycine prodrug; cited from earlier work
[3] = molecular target: PCP site of the NMDA-PCP receptor complex; assay: [3H]TCP binding to synaptic plasma membranes under basal conditions; set-up: species or system rat
Method: as §1

Male Long-Evans rats = assay: Passive avoidance assay; type: in vivo, rat; conditions: for Latency in Seconds in Passive Avoidance: saline 11.9; for Latency to enter box 24 hours after shock: n = 6
Excerpt: Subjects: Male Long-Evans rats weighing about 200 g (Sasco) were used. They were housed two per cage with ad lib food and water for the duration of the experiment.
Apparatus: The apparatus consisted of a plexiglass box (32×26×20 cm) with a lid with a floor of metal rods spaced 1.8 cm apart. The box was divided into two chambers, one painted black and the other gray. Two doors (12 cm high) were cut into the front of the box allowing access into each chamber.
A Y-shaped plexiglas runway was attached to the front of the box. The stem of the Y was 16 cm long and unpainted. The arms of the Y (14 cm long each) led to the two doors and each was painted the color of the chamber to which it led. The stem of the Y extended over the edge of the table on which the apparatus was placed, so that it was approximately 75 cm above the floor. The metal floor of the box was wired to a Lafayette shock generator so that a 0.5 mAmp shock could be delivered.
Procedure: On the first rest day, each rat was placed on the runway and allowed to enter one of the chambers. The door to this chamber was then closed, and the rat was then allowed to enter the other chamber. […] Sixty minutes later, each rat was again allowed to enter one chamber, where it received a footshock for 2 seconds. […] On the third test day, the rat is again placed on the runway and allowed to enter a chamber. On days two and three, each rat's latency to enter a chamber, and which chamber it entered, are recorded.

Rats = assay: Rewarded alternation of rats in a T-maze; type: in vivo, rat; conditions: 3 mg/kg i.p.
Excerpt: Both groups learned the task in about 20 trials. Learning is defined as making 9 correct out of 10 consecutive choices. On the following day, the food reward was placed in the other arm of the maze (reversal).

## NCC(=O)O [Glycine]
[1]
  Maximum specific [3H]TCP binding: 4712±779 DPM

## CCCCCNCC(N)=O [milacemide]
[2]
  Increase of whole brain content of glycine: 30%

## c1csc(C2(N3CCCCC3)CCCCC2)c1 [[^3 H]TCP]
[3]
  pKd: 7.36

## C[C@@H](N)C(=O)O [D-alanine]
Male Long-Evans rats; 534 mg/kg I.G.
  Latency in Seconds in Passive Avoidance: 10.9 s

## N[C@@H]1CONC1=O [D-cycloserine, 4-amino-3-isoxazolidone]
Male Long-Evans rats; 0.3 mg/kg i.p., post-shock
  % of Saline Control Latency in Passive Avoidance: 160%
Male Long-Evans rats; 0.3 mg/kg i.p., pre-retrieval
  % of Saline Control Latency in Passive Avoidance: 105%
Male Long-Evans rats; 0.3 mg/kg i.p., pre-shock
  % of Saline Control Latency in Passive Avoidance: 152%
Male Long-Evans rats; 3 mg/kg i.p., post-shock
  % of Saline Control Latency in Passive Avoidance: 215%
Male Long-Evans rats; 3 mg/kg i.p., pre-retrieval
  % of Saline Control Latency in Passive Avoidance: 153%
Male Long-Evans rats; 3 mg/kg i.p., pre-shock
  % of Saline Control Latency in Passive Avoidance: 245%
Male Long-Evans rats; 10 mg/kg i.p., drug after shock
  Latency to enter box 24 hours after shock: 22.8 ± 2.4 s
Male Long-Evans rats; 10 mg/kg i.p., drug before shock
  Latency to enter box 24 hours after shock: 16.6 ± 3.0 s
Male Long-Evans rats; 10 mg/kg i.p., post-shock
  % of Saline Control Latency in Passive Avoidance: 153%
Male Long-Evans rats; 10 mg/kg i.p., pre-retrieval
  % of Saline Control Latency in Passive Avoidance: 180%
Male Long-Evans rats; 10 mg/kg i.p., pre-shock
  % of Saline Control Latency in Passive Avoidance: 138%
Male Long-Evans rats; 20 mg/kg i.p., pre-retrieval
  % of Saline Control Latency in Passive Avoidance: 100%
Male Long-Evans rats; 60 mg/kg I.G.
  Latency in Seconds in Passive Avoidance: 17.3 s
Rats; following day, saline about 32 trials
  Trials to learn the reversal: about 20 trials
Rats; initial task
  Trials to learn place learning task (9 correct out of 10 consecutive choices): about 20 trials
